Reference: the Kinase Knowledgebase extract (Sharma et al. 2016)

What follows are molecules tested against EGFR (human) (UniProt P00533). Conditions: not given.
EGFR (human), sequence (P00533 whole entry, looked up): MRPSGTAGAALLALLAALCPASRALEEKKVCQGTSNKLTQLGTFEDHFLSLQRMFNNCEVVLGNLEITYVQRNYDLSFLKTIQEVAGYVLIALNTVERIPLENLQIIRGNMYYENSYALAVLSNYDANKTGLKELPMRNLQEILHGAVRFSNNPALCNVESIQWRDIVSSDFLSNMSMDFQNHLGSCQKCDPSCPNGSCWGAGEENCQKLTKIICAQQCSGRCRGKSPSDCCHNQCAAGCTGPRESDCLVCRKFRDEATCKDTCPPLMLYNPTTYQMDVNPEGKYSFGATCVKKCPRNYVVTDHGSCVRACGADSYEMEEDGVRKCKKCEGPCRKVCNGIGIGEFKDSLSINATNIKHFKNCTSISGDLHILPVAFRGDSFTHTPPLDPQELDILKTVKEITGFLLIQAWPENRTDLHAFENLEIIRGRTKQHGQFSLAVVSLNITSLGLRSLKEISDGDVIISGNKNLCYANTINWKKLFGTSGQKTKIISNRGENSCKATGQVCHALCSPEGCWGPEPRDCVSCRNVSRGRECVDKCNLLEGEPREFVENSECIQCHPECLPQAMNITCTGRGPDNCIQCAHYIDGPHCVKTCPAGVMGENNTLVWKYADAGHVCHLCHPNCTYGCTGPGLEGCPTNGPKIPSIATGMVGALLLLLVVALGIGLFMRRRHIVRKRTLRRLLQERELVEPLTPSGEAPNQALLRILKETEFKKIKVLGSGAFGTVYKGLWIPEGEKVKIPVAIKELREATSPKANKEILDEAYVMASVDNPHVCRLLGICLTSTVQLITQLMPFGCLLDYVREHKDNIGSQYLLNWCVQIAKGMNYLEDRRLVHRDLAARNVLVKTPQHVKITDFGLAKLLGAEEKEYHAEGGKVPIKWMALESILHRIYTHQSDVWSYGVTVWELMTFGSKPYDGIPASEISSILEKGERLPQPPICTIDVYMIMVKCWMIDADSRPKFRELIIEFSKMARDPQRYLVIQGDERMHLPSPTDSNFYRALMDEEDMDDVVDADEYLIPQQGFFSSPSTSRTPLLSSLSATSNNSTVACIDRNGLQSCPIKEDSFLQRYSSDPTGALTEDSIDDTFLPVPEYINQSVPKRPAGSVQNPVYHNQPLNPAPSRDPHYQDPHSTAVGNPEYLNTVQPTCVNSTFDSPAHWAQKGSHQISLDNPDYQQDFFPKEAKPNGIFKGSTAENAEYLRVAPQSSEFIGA

IC50 [nM] | Compound
53 | CCN(CC)CCNCc1cn(-c2ccc3ncnc(Nc4ccc(OCc5cccc(F)c5)c(Cl)c4)c3c2)cc1C(F)(F)F
276 | CN(C)CC=CC(=O)Nc1cn(-c2ccc3ncnc(Nc4ccc(OCc5cccc(F)c5)c(Cl)c4)c3c2)cc1C(F)(F)F
197 | Fc1cccc(COc2ccc(Nc3ncnc4ccc(-c5c[nH]c(CNCCCN6CCOCC6)c5)cc34)cc2Cl)c1
56 | CN(C)Cc1cn(-c2ccc3ncnc(Nc4ccc(OCc5cccc(F)c5)c(Cl)c4)c3c2)cc1CN(C)C
15 | CN(C)Cc1cn(-c2ccc3ncnc(Nc4ccc5c(cnn5Cc5cccc(F)c5)c4)c3c2)cc1CCO
21 | CCN(CC)Cc1cn(-c2ccc3ncnc(Nc4ccc(OCc5ccccn5)c(Cl)c4)c3c2)cc1CCO
12 | OC(CN1CCOCC1)Cn1ccc(-c2ccc3ncnc(Nc4ccc(OCc5cccc(F)c5)c(Cl)c4)c3c2)c1 (centres undefined)
91 | O[C@@H](CNCc1cn(-c2ccc3ncnc(Nc4ccc(OCc5cccc(F)c5)c(Cl)c4)c3c2)cc1C(F)(F)F)CN1CCOCC1
72 | COCCc1cn(-c2ccc3ncnc(Nc4ccc(OCc5cccc(F)c5)c(Cl)c4)c3c2)cc1C(=O)N1CCOCC1
127 | O=S1(=O)CCC(CNCc2cn(-c3ccc4ncnc(Nc5ccc(F)c(Cl)c5)c4c3)cc2CCO)CC1
11 | CS(=O)(=O)CCNCc1cn(-c2ccc3ncnc(Nc4ccc(OCc5cccc(F)c5)c(Cl)c4)c3c2)cc1CCO
47 | Fc1ccc(Nc2ncnc3ccc(-c4cc[nH]c4)cc23)cc1Cl
28 | CC(C)(C)OC(=O)n1cccc1-c1ccc2ncnc(Nc3ccc(OCc4cccc(F)c4)c(Cl)c3)c2c1
115 | O=C(NCCCN1CCOCC1)c1cn(-c2ccc3ncnc(Nc4ccc5c(cnn5Cc5ccc(F)cc5)c4)c3c2)cc1CCO
16 | O=S1(=O)CCC(O)(CNCc2cn(-c3ccc4ncnc(Nc5ccc(OCc6cccc(F)c6)c(Cl)c5)c4c3)cc2C(F)(F)F)CC1
24 | CS(=O)(=O)CCNC(=O)c1cc(-c2ccc3ncnc(Nc4ccc(OCc5cccc(F)c5)c(Cl)c4)c3c2)c[nH]1
15 | CCN(CC)CCc1cn(-c2ccc3ncnc(Nc4ccc(OCc5cccc(F)c5)c(Cl)c4)c3c2)cc1C(=O)N1CCOCC1
32 | Fc1cccc(COc2ccc(Nc3ncnc4ccc(-n5cc(CNCCN6CCOCC6)c(C(F)(F)F)c5)cc34)cc2Cl)c1
71 | OCCc1cn(-c2ccc3ncnc(Nc4ccc(OCc5cccc(F)c5)c(Cl)c4)c3c2)cc1CNCCN1CCOCC1
66 | Fc1cccc(COc2ccc(Nc3ncnc4ccc(-c5c[nH]c(CN6CCC(N7CCCCC7)CC6)c5)cc34)cc2Cl)c1
12 | O=S1(=O)CCC(CNCc2cn(-c3ccc4ncnc(Nc5ccc6c(cnn6Cc6cccc(F)c6)c5)c4c3)cc2CCO)CC1
22 | OCCc1cn(-c2ccc3ncnc(Nc4ccc(OCc5ccccn5)c(Cl)c4)c3c2)cc1CN1CCOCC1
3 | Fc1cccc(Cn2ncc3cc(Nc4ncnc5ccc(-c6cc[nH]c6)cc45)ccc32)c1
95 | O=C(c1cn(-c2ccc3ncnc(Nc4ccc(OCc5ccccn5)c(Cl)c4)c3c2)cc1CCO)N1CCCCC1
34 | O=C(Cn1ccc(-c2ccc3ncnc(Nc4ccc(OCc5cccc(F)c5)c(Cl)c4)c3c2)c1)NC1CCNCC1

IC50 [nM] | Compound
65 | CS(=O)(=O)CCNCc1cn(-c2ccc3ncnc(Nc4ccc(F)c(Cl)c4)c3c2)cc1CCO
42 | O=S1(=O)CCC(CNCC(O)Cn2ccc(-c3ccc4ncnc(Nc5ccc(OCc6cccc(F)c6)c(Cl)c5)c4c3)c2)CC1 (centres undefined)
12 | OC1(Cn2ccc(-c3ccc4ncnc(Nc5ccc(OCc6cccc(F)c6)c(Cl)c5)c4c3)c2)CCNCC1
17 | CS(=O)(=O)CCNCC(O)Cn1ccc(-c2ccc3ncnc(Nc4ccc(OCc5cccc(F)c5)c(Cl)c4)c3c2)c1 (centres undefined)
72 | CCN(CC)CCON=C1CCc2cn(-c3ccc4ncnc(Nc5ccc(OCc6cccc(F)c6)c(Cl)c5)c4c3)cc21
39 | CN(C)Cc1cn(-c2ccc3ncnc(Nc4ccc(OCc5cccc(F)c5)c(Cl)c4)c3c2)cc1CCO
8 | O=C(NCCN1CCCCC1)c1cn(-c2ccc3ncnc(Nc4ccc(OCc5cccc(F)c5)c(Cl)c4)c3c2)cc1CCO
102 | Fc1cccc(COc2ccc(Nc3ncnc4ccc(-c5c[nH]c(CNCCN6CCOCC6)c5)cc34)cc2Cl)c1
291 | Fc1cccc(COc2ccc(Nc3ncnc4ccc(-n5cc(CN6CCCCC6)c(CN6CCCCC6)c5)cc34)cc2Cl)c1
470 | CC(C)(C)OC(=O)N1CCC(NCc2cc(-c3ccc4ncnc(Nc5ccc(OCc6cccc(F)c6)c(Cl)c5)c4c3)c[nH]2)CC1
127 | CCN(CC)Cc1cn(-c2ccc3ncnc(Nc4ccc(OCc5cccc(F)c5)c(Cl)c4)c3c2)cc1CN(CC)CC
140 | CCN(CC)C(=O)Cn1ccc(-c2ccc3ncnc(Nc4ccc(OCc5cccc(F)c5)c(Cl)c4)c3c2)c1
14 | CS(=O)(=O)n1ccc(-c2ccc3ncnc(Nc4ccc(OCc5cccc(F)c5)c(Cl)c4)c3c2)c1
11 | COCCNCC(O)Cn1ccc(-c2ccc3ncnc(Nc4ccc(OCc5cccc(F)c5)c(Cl)c4)c3c2)c1 (centres undefined)
376 | Fc1cccc(COc2ccc(Nc3ncnc4ccc(-n5cc(CN6CCOCC6)c(CN6CCOCC6)c5)cc34)cc2Cl)c1
76 | O=S1(=O)CCC(O)(CNCc2cn(-c3ccc4ncnc(Nc5ccc(F)c(Cl)c5)c4c3)cc2CCO)CC1
37 | CCN(CC)Cc1cn(-c2ccc3ncnc(Nc4ccc(OCc5cccc(F)c5)c(Cl)c4)c3c2)cc1CCO
131 | Fc1cccc(COc2ccc(Nc3ncnc4ccc(-c5ccn(CCOC6CCCCO6)c5)cc34)cc2Cl)c1 (centres undefined)
638 | Fc1cccc(COc2ccc(Nc3ncnc4ccc(-c5ccn(C[C@H]6CCNC6)c5)cc34)cc2Cl)c1
96 | O=C(NCCCN1CCOCC1)c1cn(-c2ccc3ncnc(Nc4ccc(OCc5ccccn5)c(Cl)c4)c3c2)cc1CCO
60 | OCC1CCCN1CCn1ccc(-c2ccc3ncnc(Nc4ccc(OCc5cccc(F)c5)c(Cl)c4)c3c2)c1 (centres undefined)
92 | OC(CNCCN1CCCCC1)Cn1ccc(-c2ccc3ncnc(Nc4ccc(OCc5cccc(F)c5)c(Cl)c4)c3c2)c1 (centres undefined)
23 | O=C(NCCN1CCCCC1)c1cn(-c2ccc3ncnc(Nc4ccc5c(cnn5Cc5ccc(F)cc5)c4)c3c2)cc1CCO
50 | O=C(c1cn(-c2ccc3ncnc(Nc4ccc5c(cnn5Cc5ccc(F)cc5)c4)c3c2)cc1CCO)N1CCOCC1
24 | O=S1(=O)CCC(CNCc2cn(-c3ccc4ncnc(Nc5ccc(OCc6cccc(F)c6)c(Cl)c5)c4c3)cc2CCO)CC1

IC50 [nM] | Compound
40 | Fc1cccc(COc2ccc(Nc3ncnc4ccc(-c5ccn(CCN6CCOCC6)c5)cc34)cc2Cl)c1
30 | OC(CN1CCNCC1)Cn1ccc(-c2ccc3ncnc(Nc4ccc(OCc5cccc(F)c5)c(Cl)c4)c3c2)c1 (centres undefined)
16 | O=C(NCCN1CCCC1)c1cn(-c2ccc3ncnc(Nc4ccc5c(cnn5Cc5ccc(F)cc5)c4)c3c2)cc1CCO
2 | O=C1CCc2cn(-c3ccc4ncnc(Nc5ccc(OCc6cccc(F)c6)c(Cl)c5)c4c3)cc21
31 | CCOC(=O)c1cn(-c2ccc3ncnc(Nc4ccc(OCc5cccc(F)c5)c(Cl)c4)c3c2)cc1C(F)(F)F
49 | OC1CCC(NCC(O)Cn2ccc(-c3ccc4ncnc(Nc5ccc(OCc6cccc(F)c6)c(Cl)c5)c4c3)c2)CC1 (centres undefined)
19 | O=S1(=O)CCC(O)(CNCc2cn(-c3ccc4ncnc(Nc5ccc(OCc6cccc(F)c6)c(Cl)c5)c4c3)cc2CCO)CC1
16 | CS(=O)(=O)CCNCc1cn(-c2ccc3ncnc(Nc4ccc(OCc5ccccn5)c(Cl)c4)c3c2)cc1CCO
57 | CN(C)CCc1cn(-c2ccc3ncnc(Nc4ccc(OCc5cccc(F)c5)c(Cl)c4)c3c2)cc1C(=O)N1CCOCC1
13 | O=C(Cn1ccc(-c2ccc3ncnc(Nc4ccc(OCc5cccc(F)c5)c(Cl)c4)c3c2)c1)NC1CC1
42 | CN1CCN(Cc2cn(-c3ccc4ncnc(Nc5ccc(OCc6cccc(F)c6)c(Cl)c5)c4c3)cc2CCO)CC1
31 | COCCNCc1cc(-c2ccc3ncnc(Nc4ccc(OCc5cccc(F)c5)c(Cl)c4)c3c2)c[nH]1
5 | C=C(C)C(=O)Nc1cn(-c2ccc3ncnc(Nc4ccc(OCc5cccc(F)c5)c(Cl)c4)c3c2)cc1C(F)(F)F
156 | CCN(CC)CCNC(=O)c1cn(-c2ccc3ncnc(Nc4ccc5c(cnn5Cc5ccc(F)cc5)c4)c3c2)cc1CCO
2 | Fc1cccc(COc2ccc(Nc3ncnc4ccc(-c5ccn(CCN6CCNCC6)c5)cc34)cc2Cl)c1
25 | O=C(c1cn(-c2ccc3ncnc(Nc4ccc(OCc5cccc(F)c5)c(Cl)c4)c3c2)cc1CCN1CCOCC1)N1CCOCC1
62 | CN1CCN(C(=O)c2cn(-c3ccc4ncnc(Nc5ccc6c(cnn6Cc6ccc(F)cc6)c5)c4c3)cc2CCO)CC1
30 | O=C(c1cn(-c2ccc3ncnc(Nc4ccc(OCc5ccccn5)c(Cl)c4)c3c2)cc1CCO)N1CCCC1
4 | CS(=O)(=O)CCNCc1cc(-c2ccc3ncnc(Nc4ccc5c(cnn5Cc5cccc(F)c5)c4)c3c2)c[nH]1
25 | CS(=O)(=O)CCNCc1cn(-c2ccc3ncnc(Nc4ccc5c(cnn5Cc5cccc(F)c5)c4)c3c2)cc1CCO
105 | O=C(c1cn(-c2ccc3ncnc(Nc4ccc(OCc5ccccn5)c(Cl)c4)c3c2)cc1CCO)N1CCC(N2CCCCC2)CC1
10 | Fc1cccc(COc2ccc(Nc3ncnc4ccc(-n5cc(CNCCN6CCCCC6)c(C(F)(F)F)c5)cc34)cc2Cl)c1
66 | O=C(Cn1ccc(-c2ccc3ncnc(Nc4ccc(OCc5cccc(F)c5)c(Cl)c4)c3c2)c1)N1CCCCC1

What follows are molecules tested against EGFR (human) (UniProt P00533). Conditions: a431.

IC50 [nM] | Compound
647 | CS(=O)(=O)CCn1ccc(-c2ccc3ncnc(Nc4ccc(OCc5cccc(F)c5)c(Cl)c4)c3c2)c1
660 | OC1CCN(C[C@H](O)Cn2ccc(-c3ccc4ncnc(Nc5ccc(OCc6cccc(F)c6)c(Cl)c5)c4c3)c2)CC1
220 | OCCc1cn(-c2ccc3ncnc(Nc4ccc(F)c(Cl)c4)c3c2)cc1CN1CCCCC1
210 | CN1CCN(Cc2cn(-c3ccc4ncnc(Nc5ccc(F)c(Cl)c5)c4c3)cc2CCO)CC1
459 | OCCN1CCN(CC(O)Cn2ccc(-c3ccc4ncnc(Nc5ccc6c(cnn6Cc6cccc(F)c6)c5)c4c3)c2)CC1 (centres undefined)
714 | OC(CNCCN1CCOCC1)Cn1ccc(-c2ccc3ncnc(Nc4ccc5c(cnn5Cc5cccc(F)c5)c4)c3c2)c1 (centres undefined)
